{"source": "paper PMC4503722", "about": "“Novel Phenotypic Outcomes Identified for a Public Collection of Approved Drugs from a Publicly Accessible Panel of Assays” (PLoS ONE, 2015)", "key": {"[1]": {"system": "endothelial tube formation in co-cultures of ECFCs and ADSCs treated with VEGF", "assay": "cells", "assay_type": "cell-based, human", "conditions": "Homo sapiens"}, "[2]": {"system": "nuclear β-catenin in C2C12 cells", "assay": "cells", "assay_type": "cell-based", "conditions": "Mus musculus, C2C12, read-out: Wnt pot. EC50"}, "INS-1E cells": {"system": "INS-1E cells", "assay": "cells", "assay_type": "cell-based, rat", "conditions": "Rattus norvegicus, INS-1E, read-out: Ins. sec. EC50"}, "NCI-H716 cells": {"system": "NCI-H716 cells", "assay": "cells", "assay_type": "cell-based, Human", "conditions": "Homo sapiens, NCI-H716, read-out: GLP1 sec. EC50"}, "HeLa cells": {"system": "HeLa cells", "assay": "cells", "assay_type": "cell-based", "conditions": "Homo sapiens, HeLa, read-out: CellCycle G2/M"}, "DLD-1": {"system": "DLD-1", "assay": "cells", "assay_type": "cell-based", "conditions": "Homo sapiens"}, "SW480": {"system": "SW480", "assay": "cells", "assay_type": "cell-based", "conditions": "Homo sapiens"}, "HCT116": {"system": "HCT116", "assay": "cells", "assay_type": "cell-based", "conditions": "Homo sapiens"}, "[3]": {"system": "HCT116 cells treated with a GSK3β inhibitor", "assay": "cells", "assay_type": "cell-based", "conditions": "Homo sapiens"}, "Colo320": {"system": "Colo320", "assay": "cells", "assay_type": "cell-based", "conditions": "Homo sapiens"}, "HT-29": {"system": "HT-29", "assay": "cells", "assay_type": "cell-based", "conditions": "Homo sapiens"}, "RKO": {"system": "RKO", "assay": "cells", "assay_type": "cell-based", "conditions": "Homo sapiens, RKO"}, "SNU-C1": {"system": "SNU-C1", "assay": "cells", "assay_type": "cell-based", "conditions": "Homo sapiens"}, "hp70S6K1 (RPS6KB1)": {"target": "T1, hp70S6K1 (RPS6KB1) (Homo sapiens, UniProt P23443)", "T1 construct": "purchased Cerep (LANCE kinase assay platform, contract assay)", "T1 sequence (P23443 whole entry)": "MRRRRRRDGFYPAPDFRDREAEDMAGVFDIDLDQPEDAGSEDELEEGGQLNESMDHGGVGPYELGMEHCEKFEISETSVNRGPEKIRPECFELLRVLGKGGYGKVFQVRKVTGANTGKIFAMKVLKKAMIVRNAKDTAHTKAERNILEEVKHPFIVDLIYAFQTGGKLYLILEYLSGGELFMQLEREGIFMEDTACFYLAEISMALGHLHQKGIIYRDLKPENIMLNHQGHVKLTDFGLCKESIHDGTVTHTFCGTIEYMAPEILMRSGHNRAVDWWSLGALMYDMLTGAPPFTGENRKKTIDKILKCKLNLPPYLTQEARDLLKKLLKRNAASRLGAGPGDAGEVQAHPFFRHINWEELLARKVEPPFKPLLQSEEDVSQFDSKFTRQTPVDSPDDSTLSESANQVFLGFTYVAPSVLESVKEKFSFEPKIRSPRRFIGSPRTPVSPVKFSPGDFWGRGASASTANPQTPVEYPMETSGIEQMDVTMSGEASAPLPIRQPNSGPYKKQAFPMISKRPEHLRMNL", "assay": "Cerep LANCE kinase assay hp70S6K1 (S1 assay 31)", "assay_type": "biochemical", "conditions": "kinase assay; read-out: p70S6K1"}, "hKDR": {"target": "T2, hKDR (Homo sapiens, UniProt P35968)", "T2 construct": "purchased Cerep (LANCE kinase assay platform, contract assay)", "T2 sequence (P35968 20-1356)": "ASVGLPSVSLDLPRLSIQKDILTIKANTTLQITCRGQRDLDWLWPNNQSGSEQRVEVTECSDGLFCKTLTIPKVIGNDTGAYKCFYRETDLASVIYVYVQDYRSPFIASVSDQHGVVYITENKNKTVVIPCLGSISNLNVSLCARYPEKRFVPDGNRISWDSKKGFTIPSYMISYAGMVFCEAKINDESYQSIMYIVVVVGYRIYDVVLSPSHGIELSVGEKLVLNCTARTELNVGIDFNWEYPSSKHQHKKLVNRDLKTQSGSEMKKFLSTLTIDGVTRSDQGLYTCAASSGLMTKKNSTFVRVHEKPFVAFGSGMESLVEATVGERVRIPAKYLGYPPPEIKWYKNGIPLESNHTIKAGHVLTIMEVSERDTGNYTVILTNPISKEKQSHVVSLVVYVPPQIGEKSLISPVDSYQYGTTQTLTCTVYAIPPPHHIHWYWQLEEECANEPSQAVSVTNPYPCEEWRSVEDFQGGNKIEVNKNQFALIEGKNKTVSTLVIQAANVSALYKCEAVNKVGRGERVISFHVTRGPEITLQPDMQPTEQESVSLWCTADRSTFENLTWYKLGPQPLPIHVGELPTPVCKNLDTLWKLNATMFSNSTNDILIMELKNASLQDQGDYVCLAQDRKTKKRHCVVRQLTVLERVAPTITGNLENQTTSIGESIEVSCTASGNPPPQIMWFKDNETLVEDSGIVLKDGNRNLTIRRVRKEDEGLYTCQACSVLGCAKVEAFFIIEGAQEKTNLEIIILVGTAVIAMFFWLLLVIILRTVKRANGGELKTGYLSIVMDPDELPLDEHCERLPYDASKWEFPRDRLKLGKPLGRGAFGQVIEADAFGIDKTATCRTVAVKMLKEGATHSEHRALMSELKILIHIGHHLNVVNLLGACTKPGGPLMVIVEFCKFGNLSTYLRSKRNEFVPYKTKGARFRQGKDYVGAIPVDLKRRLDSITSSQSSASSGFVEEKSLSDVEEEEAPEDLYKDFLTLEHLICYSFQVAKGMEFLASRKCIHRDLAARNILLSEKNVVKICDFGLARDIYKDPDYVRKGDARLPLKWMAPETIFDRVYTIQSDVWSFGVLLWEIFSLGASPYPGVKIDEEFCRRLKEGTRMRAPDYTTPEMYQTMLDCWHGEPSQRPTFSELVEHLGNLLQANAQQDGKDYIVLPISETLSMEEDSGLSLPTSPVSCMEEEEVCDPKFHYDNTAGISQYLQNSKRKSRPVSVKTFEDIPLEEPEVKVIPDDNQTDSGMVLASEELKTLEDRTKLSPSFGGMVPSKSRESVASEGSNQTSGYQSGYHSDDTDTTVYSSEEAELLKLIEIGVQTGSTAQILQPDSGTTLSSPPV", "assay": "Cerep LANCE kinase assay hKDR (S1 assay 32)", "assay_type": "biochemical", "conditions": "kinase assay; read-out: KDR"}, "hJAK2": {"target": "T3, hJAK2 (Homo sapiens, UniProt O60674)", "T3 construct": "purchased Cerep (LANCE kinase assay platform, contract assay)", "T3 sequence (O60674 whole entry)": "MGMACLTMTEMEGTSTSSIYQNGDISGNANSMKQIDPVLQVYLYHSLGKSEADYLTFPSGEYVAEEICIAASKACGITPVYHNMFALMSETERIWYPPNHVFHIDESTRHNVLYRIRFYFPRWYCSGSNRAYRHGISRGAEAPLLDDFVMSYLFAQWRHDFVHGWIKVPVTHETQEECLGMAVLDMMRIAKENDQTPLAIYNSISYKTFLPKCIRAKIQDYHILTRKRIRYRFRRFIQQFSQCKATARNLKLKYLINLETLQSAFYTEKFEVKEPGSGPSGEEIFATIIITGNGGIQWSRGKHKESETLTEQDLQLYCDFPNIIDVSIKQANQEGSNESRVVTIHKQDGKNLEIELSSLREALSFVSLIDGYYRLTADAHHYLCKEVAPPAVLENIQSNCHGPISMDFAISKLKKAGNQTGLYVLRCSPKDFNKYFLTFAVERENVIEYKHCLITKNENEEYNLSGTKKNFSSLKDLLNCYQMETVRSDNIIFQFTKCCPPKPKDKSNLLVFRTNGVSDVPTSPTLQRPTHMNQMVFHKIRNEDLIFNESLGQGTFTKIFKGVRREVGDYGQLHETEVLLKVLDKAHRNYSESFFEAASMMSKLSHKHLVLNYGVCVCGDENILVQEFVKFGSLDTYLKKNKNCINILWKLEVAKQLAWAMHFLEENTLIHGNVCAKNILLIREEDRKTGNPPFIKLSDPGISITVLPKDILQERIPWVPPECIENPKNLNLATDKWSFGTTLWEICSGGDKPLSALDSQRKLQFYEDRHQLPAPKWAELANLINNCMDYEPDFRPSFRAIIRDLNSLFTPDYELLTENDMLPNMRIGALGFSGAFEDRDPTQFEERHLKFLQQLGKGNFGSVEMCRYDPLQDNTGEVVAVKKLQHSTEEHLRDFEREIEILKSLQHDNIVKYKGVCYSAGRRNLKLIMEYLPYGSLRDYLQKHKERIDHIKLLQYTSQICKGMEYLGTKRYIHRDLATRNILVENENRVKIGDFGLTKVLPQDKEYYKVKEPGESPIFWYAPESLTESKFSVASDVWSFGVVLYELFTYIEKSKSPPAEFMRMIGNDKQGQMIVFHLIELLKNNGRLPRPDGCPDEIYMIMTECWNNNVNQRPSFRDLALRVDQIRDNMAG", "assay": "Cerep LANCE kinase assay hJAK2 (S1 assay 33)", "assay_type": "biochemical", "conditions": "kinase assay; read-out: JAK2"}, "hGSK3b": {"target": "T4, hGSK3b (Homo sapiens, UniProt P49841)", "T4 construct": "purchased Cerep (LANCE kinase assay platform, contract assay)", "T4 sequence (P49841 whole entry)": "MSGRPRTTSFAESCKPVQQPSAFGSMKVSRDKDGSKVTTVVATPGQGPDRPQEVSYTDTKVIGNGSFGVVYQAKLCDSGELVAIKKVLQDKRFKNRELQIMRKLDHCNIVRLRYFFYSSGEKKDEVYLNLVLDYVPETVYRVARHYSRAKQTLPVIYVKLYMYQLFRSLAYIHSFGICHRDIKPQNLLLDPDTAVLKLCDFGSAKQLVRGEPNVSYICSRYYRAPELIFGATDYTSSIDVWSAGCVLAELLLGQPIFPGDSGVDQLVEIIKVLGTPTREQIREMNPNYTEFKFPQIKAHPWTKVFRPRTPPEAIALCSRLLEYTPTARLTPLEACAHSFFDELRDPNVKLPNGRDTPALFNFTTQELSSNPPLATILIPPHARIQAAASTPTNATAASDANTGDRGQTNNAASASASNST", "assay": "Cerep LANCE kinase assay hGSK3b (S1 assay 34)", "assay_type": "biochemical", "conditions": "kinase assay; read-out: GSK3b"}, "hFLT3": {"target": "T5, hFLT3 (Homo sapiens, UniProt P36888)", "T5 construct": "purchased Cerep (LANCE kinase assay platform, contract assay)", "T5 sequence (P36888 27-993)": "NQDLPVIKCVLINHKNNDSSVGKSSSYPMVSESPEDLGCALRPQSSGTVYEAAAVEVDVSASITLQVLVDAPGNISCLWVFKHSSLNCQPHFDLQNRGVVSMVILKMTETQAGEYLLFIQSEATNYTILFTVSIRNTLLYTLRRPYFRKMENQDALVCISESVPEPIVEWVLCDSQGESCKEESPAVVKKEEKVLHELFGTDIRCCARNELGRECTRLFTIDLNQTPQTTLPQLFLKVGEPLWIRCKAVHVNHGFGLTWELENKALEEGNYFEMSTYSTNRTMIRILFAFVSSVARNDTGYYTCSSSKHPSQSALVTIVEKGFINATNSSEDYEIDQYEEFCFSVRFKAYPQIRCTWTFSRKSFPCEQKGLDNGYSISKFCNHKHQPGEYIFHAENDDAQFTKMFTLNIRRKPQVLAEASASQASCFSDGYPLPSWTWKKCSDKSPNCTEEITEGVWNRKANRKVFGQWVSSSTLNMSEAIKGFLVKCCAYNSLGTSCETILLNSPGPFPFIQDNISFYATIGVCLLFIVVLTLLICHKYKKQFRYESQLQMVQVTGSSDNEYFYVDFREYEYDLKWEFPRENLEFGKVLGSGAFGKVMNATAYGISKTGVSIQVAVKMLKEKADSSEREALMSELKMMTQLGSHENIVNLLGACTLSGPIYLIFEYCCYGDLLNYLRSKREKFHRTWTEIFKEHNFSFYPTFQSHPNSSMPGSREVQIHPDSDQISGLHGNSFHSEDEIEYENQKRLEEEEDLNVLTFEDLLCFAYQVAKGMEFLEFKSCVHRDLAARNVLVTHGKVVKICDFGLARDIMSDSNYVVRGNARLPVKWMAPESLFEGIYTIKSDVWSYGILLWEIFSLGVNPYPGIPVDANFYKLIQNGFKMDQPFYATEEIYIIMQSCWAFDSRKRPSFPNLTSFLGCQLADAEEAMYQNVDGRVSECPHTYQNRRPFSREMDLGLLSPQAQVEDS", "assay": "Cerep LANCE kinase assay hFLT3 (S1 assay 35)", "assay_type": "biochemical", "conditions": "kinase assay; read-out: FLT3"}, "[4]": {"system": "panel of 7 colon cancer cell lines", "assay": "KRAS/Wnt synthetic lethal module: selectivity ratios across the colon cancer cell line panel (sub-modules)", "assay_type": "cell-based"}, "[5]": {"system": "ECFC/ADSC co-culture cell nuclei number", "conditions": "human"}}, "note": "Like-named read-outs stand apart in the source and are kept apart here."}
{"molecule": "COCc1c(C(C)C)nc(C(C)C)c(/C=C/[C@@H](O)C[C@@H](O)CC(=O)O)c1-c1ccc(F)cc1", "note": "[cerivastatin, reference compound]", "values": [{"measurement": "IC50", "setting": "[1]; read-out: Anti-Angio IC50", "value": 0.089, "unit": "µM"}, {"measurement": "IC50", "setting": "[1]; read-out: Anti-Angiogenesis", "value": 0.0894, "unit": "µM"}, {"measurement": "EC50", "setting": "[2]", "value": 19.9, "unit": "µM"}, {"measurement": "EC50", "setting": "INS-1E cells", "value": "> 10", "unit": "µM"}, {"measurement": "EC50", "setting": "NCI-H716 cells", "value": "> 10", "unit": "µM"}, {"measurement": "EC50", "setting": "HeLa cells", "value": "> 10", "unit": "µM"}, {"measurement": "IC50", "setting": "DLD-1; DLD-1, 72 h, read-out: DLD-1 viab. IC50", "value": 2.5, "unit": "µM"}, {"measurement": "IC50", "setting": "DLD-1; DLD-1, read-out: Basal_Viability ATP DLD-1", "value": 2.51, "unit": "µM"}, {"measurement": "IC50", "setting": "SW480; SW480, 72 h, read-out: SW480 viab. IC50", "value": 0.14, "unit": "µM"}, {"measurement": "IC50", "setting": "SW480; SW480, read-out: Basal_Viability ATP SW480", "value": 0.143, "unit": "µM"}, {"measurement": "IC50", "setting": "HCT116; HCT-116, 72 h, read-out: HCT-116 viab. IC50", "value": 0.24, "unit": "µM"}, {"measurement": "IC50", "setting": "HCT116; HCT-116, read-out: Basal_Viability ATP HCT116", "value": 0.24, "unit": "µM"}, {"measurement": "IC50", "setting": "[3]; HCT-116, 72 h, read-out: HCT-116 (GSK3β) viab. IC50", "value": 0.053, "unit": "µM"}, {"measurement": "IC50", "setting": "[3]; HCT-116, read-out: GSK3b inh pretreated_Viability ATP HCT116", "value": 0.0529, "unit": "µM"}, {"measurement": "IC50", "setting": "Colo320; COLO 320, 72 h, read-out: Colo320 viab. IC50", "value": 1.9, "unit": "µM"}, {"measurement": "IC50", "setting": "Colo320; COLO 320, read-out: Basal_Viability ATP Colo 320", "value": 1.92, "unit": "µM"}, {"measurement": "IC50", "setting": "HT-29; HT-29, 72 h, read-out: HT-29 viab. IC50", "value": 1.2, "unit": "µM"}, {"measurement": "IC50", "setting": "HT-29; HT-29, read-out: Basal_Viability ATP HT-29", "value": 1.21, "unit": "µM"}, {"measurement": "IC50", "setting": "RKO; 72 h, read-out: RKO viab. IC50", "value": 1, "unit": "µM"}, {"measurement": "IC50", "setting": "RKO; read-out: Basal_Viability ATP RKO", "value": 1.01, "unit": "µM"}, {"measurement": "IC50", "setting": "SNU-C1; SNU-C1, 72 h, read-out: SNU-C1 viab. IC50", "value": 1.9, "unit": "µM"}, {"measurement": "IC50", "setting": "SNU-C1; SNU-C1, read-out: Basal_Viability ATP SNU-C1", "value": 1.87, "unit": "µM"}, {"measurement": "IC50", "setting": "hp70S6K1 (RPS6KB1)", "value": "> 20", "unit": "µM"}, {"measurement": "IC50", "setting": "hKDR", "value": "> 20", "unit": "µM"}, {"measurement": "IC50", "setting": "hJAK2", "value": "> 20", "unit": "µM"}, {"measurement": "IC50", "setting": "hGSK3b", "value": "> 20", "unit": "µM"}, {"measurement": "IC50", "setting": "hFLT3", "value": "> 20", "unit": "µM"}, {"measurement": "fold potency difference KRAS mutant lines SW480 and HCT116 vs. KRAS wild-type lines Colo320 and SNU-C1", "setting": "[4]", "value": "5–10 fold"}, {"measurement": "cytotoxicity IC50 relative to IC50 for inhibition of endothelial cord formation", "setting": "[5]", "value": "2–3 fold"}]}
